Here are results for one compound from patent publication EP1928842B1, “4-PHENYL-6-SUBSTITUTED-PYRIMIDINE-2-CARBONITRILE DERIVATIVES” (priority 2005, dated 2007).

The test has as its target T1, recombinant human Cathepsin K (Homo sapiens, UniProt P43235).
T1 sequence (P43235 115-329): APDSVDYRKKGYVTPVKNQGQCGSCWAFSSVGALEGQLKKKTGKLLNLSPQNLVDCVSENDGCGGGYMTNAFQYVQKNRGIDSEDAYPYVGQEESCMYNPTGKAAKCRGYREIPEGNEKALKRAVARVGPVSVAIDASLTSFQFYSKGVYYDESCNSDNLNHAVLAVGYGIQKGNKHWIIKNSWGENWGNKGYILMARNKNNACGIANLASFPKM
The test is described as follows: Cathepsin K activity: inhibition of recombinant human Cathepsin K (fluorogenic substrate Z-Phe-Arg-AMC). To be noted: sodium acetate pH5.5, fluorescence at 10 minutes, read-out: pIC50 (negative logarithm of the IC50 concentration) for inhibition of human cathepsin K (converted). The format is biochemical. On the procedure:
10µl of a 1mg/l solution of activated recombinant human cathepsin K, in assay buffer, is then added to the well, yielding a final inhibitor concentration of 10µM. • Enzyme activity is determined by measuring the fluorescence of the liberated aminomethylcoumarin at […] using 390nm excitation, at 10 minutes. Percentage enzyme activity is calculated by comparison of this activity to that of a solution containing no inhibitor. Compounds are subsequently subjected to a dose response curve analysis in order to determine IC50 values for active compounds (where IC50 is the concentration of test compound causing 50 % inhibition of the enzymatic activity). Compounds of the invention typically have a pIC50 (negative logarithm of the IC50 concentration) for inhibition of human cathepsin K of more than 6, preferably more than 7 and most preferably a pIC50 of more than 8, such as for the compounds of Examples 1, 2a, 2b, 3, 5, 6, 8, 12, 14, 13, 16k, 16n, 16o, 17, 22a, 22b, 22c

For `CC(C)N1CCN(c2cc(-c3cccc(C(F)(F)F)c3)nc(C#N)n2)CC1` [Example 3, 4-(4-Isopropyl-piperazin-1-yl)-6-(trifluoromethyl-phenyl)-pyrimidine-2-carbonitrile], the IC50 is less than 10 nM.
